According to ChEMBL document CHEMBL3045465, “Development of Selective Ligands for Benzodiazepine Receptor Subtypes by Manipulating the Substituents at Positions 3- and 7- of Optically Active BzR Ligands” (Med Chem Res, 2004):
pKi: −log10 of the molar value.

Tests used:
Homo sapiens = species: Homo sapiens; assay: Selectivity ratio of Ki for Homo sapiens (human) recombinant GABAA alpha1beta3gamma2 receptor to Ki for Homo sapiens (human) recombinant GABAA alpha5beta3gamma2 receptor
[1] = biological target: GABA-A receptor; alpha-6/beta-3/gamma-2 (Homo sapiens, UniProt P18507+P28472+Q16445); assay: Displacement of [3H]-Ro 15-4513 from Homo sapiens (human) recombinant GABAA alpha6beta3gamma2 receptor expressed in Ltk- cells after 1 hr by liquid scintillation counting; format: cell-based
[2] = biological target: T1, GABA-A receptor; alpha-1/beta-3/gamma-2 (Homo sapiens, UniProt P14867+P18507+P28472); assay: Displacement of [3H]-Ro 15-1788 from Homo sapiens (human) recombinant GABAA alpha1beta3gamma2 receptor expressed in Ltk- cells after 1 hr by liquid scintillation counting; format: cell-based
T1 sequence (P14867 whole entry): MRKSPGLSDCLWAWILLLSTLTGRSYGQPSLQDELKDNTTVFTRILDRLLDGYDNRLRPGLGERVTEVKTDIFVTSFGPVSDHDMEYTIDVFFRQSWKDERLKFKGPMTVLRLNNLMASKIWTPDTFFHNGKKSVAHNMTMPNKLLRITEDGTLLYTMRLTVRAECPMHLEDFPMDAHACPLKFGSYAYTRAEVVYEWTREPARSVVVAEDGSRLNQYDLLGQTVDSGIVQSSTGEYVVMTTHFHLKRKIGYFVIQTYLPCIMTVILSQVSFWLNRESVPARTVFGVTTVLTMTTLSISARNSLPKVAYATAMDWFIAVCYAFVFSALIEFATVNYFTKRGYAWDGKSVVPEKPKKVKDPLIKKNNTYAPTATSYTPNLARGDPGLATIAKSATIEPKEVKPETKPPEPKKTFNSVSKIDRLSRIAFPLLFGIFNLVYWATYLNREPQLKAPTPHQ
T1 sequence (P18507 whole entry): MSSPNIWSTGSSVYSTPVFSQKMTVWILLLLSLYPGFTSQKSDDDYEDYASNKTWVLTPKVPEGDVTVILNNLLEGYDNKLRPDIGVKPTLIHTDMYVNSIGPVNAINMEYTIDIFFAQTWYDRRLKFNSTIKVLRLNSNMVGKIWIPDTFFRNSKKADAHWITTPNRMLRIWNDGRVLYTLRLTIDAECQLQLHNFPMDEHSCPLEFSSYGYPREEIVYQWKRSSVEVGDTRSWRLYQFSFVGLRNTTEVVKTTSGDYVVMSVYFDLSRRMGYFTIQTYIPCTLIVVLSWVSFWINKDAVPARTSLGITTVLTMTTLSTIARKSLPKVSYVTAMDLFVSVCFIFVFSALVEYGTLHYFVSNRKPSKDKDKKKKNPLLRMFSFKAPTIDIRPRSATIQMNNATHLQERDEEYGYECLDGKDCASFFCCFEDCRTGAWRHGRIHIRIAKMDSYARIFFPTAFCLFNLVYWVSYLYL
T1 sequence (P28472 whole entry): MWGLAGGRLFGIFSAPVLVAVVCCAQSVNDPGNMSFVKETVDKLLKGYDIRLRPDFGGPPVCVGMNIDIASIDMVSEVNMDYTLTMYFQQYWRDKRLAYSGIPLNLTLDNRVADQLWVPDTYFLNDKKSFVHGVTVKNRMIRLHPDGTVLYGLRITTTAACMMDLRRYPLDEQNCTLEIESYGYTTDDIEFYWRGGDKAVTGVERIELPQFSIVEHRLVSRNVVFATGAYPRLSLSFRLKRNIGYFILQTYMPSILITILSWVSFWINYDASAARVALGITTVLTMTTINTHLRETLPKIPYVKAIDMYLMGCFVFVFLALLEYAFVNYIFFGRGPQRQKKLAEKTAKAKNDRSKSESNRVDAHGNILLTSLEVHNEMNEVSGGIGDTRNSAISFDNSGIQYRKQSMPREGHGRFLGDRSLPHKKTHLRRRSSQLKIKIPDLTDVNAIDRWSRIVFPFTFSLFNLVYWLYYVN

[3] = biological target: T2, GABA-A receptor; alpha-2/beta-3/gamma-2 (Homo sapiens, UniProt P18507+P28472+P47869); assay: Displacement of [3H]-Ro 15-1788 from Homo sapiens (human) recombinant GABAA alpha2beta3gamma2 receptor expressed in Ltk- cells after 1 hr by liquid scintillation counting; format: cell-based
T2 sequence (P18507 whole entry): T1 sequence (P18507 whole entry)
T2 sequence (P28472 whole entry): T1 sequence (P28472 whole entry)
T2 sequence (P47869 whole entry): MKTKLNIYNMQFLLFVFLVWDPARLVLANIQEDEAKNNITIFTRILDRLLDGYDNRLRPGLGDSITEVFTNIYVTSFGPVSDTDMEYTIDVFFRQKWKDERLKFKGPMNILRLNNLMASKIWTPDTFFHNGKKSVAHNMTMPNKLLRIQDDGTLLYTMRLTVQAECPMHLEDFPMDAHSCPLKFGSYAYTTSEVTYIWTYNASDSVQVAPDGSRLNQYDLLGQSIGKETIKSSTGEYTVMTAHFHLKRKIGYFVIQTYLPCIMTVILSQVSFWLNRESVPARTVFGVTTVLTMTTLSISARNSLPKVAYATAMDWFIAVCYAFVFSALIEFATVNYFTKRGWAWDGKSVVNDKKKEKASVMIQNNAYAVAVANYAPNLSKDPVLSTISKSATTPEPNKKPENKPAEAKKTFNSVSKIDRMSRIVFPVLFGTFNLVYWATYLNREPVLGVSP

[4] = biological target: GABA A receptor alpha-4/beta-3/gamma-2 (Homo sapiens, UniProt P18507+P28472+P48169); assay: Displacement of [3H]-Ro 15-4513 from Homo sapiens (human) recombinant GABAA alpha4beta3gamma2 receptor expressed in Ltk- cells after 1 hr by liquid scintillation counting; format: cell-based
[5] = biological target: T3, GABA-A receptor; alpha-3/beta-3/gamma-2 (Homo sapiens, UniProt P18507+P28472+P34903); assay: Displacement of [3H]-Ro 15-1788 from Homo sapiens (human) recombinant GABAA alpha3beta3gamma2 receptor expressed in Ltk- cells after 1 hr by liquid scintillation counting; format: cell-based
T3 sequence (P18507 whole entry): T1 sequence (P18507 whole entry)
T3 sequence (P28472 whole entry): T1 sequence (P28472 whole entry)
T3 sequence (P34903 whole entry): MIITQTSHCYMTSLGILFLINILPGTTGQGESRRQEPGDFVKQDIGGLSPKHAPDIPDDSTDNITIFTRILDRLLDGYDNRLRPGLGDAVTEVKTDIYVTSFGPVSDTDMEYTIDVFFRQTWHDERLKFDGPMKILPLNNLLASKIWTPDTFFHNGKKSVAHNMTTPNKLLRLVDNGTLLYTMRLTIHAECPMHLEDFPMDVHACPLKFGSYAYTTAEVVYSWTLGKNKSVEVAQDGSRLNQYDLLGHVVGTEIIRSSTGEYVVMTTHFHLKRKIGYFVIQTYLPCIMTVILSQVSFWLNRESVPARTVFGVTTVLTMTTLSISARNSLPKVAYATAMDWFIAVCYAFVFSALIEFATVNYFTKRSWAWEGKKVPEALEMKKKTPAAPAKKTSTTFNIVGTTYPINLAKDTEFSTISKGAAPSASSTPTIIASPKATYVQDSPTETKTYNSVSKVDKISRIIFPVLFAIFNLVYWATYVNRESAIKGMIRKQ

[6] = biological target: T4, GABA-A receptor; alpha-5/beta-3/gamma-2 (Homo sapiens, UniProt P18507+P28472+P31644); assay: Displacement of [3H]-Ro 15-1788 from Homo sapiens (human) recombinant GABAA alpha5beta3gamma2 receptor expressed in Ltk- cells after 1 hr by liquid scintillation counting; format: cell-based
T4 sequence (P18507 whole entry): T1 sequence (P18507 whole entry)
T4 sequence (P28472 whole entry): T1 sequence (P28472 whole entry)
T4 sequence (P31644 whole entry): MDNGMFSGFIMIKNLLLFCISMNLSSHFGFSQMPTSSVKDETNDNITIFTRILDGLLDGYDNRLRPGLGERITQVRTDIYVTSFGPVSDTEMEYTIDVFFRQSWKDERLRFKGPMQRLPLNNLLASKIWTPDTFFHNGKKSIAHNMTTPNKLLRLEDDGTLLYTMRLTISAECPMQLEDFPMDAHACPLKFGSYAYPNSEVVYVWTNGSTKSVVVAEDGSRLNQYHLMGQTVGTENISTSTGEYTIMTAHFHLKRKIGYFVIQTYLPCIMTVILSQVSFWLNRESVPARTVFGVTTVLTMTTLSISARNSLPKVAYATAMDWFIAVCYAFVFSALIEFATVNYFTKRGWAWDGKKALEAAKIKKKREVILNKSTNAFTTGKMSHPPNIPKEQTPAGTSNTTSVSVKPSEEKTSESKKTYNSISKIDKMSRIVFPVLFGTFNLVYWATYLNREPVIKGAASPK

Chain of GABA A receptor alpha-4/beta-3/gamma-2 (P48169 whole entry, one chain of several): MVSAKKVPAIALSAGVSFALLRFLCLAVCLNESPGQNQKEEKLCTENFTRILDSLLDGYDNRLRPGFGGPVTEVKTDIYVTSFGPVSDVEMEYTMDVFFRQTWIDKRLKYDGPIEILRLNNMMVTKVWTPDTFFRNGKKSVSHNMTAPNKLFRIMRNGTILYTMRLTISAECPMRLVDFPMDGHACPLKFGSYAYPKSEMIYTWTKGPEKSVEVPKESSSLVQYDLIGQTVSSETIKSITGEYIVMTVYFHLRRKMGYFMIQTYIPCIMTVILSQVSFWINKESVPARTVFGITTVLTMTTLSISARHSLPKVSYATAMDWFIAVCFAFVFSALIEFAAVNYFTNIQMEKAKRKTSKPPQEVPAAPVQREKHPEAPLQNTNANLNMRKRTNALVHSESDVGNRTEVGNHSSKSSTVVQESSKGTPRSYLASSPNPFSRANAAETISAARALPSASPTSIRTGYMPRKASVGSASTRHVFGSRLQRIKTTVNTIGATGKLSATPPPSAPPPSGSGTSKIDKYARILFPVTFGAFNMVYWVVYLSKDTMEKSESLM
Chain of GABA-A receptor; alpha-6/beta-3/gamma-2 (Q16445 whole entry, one chain of several): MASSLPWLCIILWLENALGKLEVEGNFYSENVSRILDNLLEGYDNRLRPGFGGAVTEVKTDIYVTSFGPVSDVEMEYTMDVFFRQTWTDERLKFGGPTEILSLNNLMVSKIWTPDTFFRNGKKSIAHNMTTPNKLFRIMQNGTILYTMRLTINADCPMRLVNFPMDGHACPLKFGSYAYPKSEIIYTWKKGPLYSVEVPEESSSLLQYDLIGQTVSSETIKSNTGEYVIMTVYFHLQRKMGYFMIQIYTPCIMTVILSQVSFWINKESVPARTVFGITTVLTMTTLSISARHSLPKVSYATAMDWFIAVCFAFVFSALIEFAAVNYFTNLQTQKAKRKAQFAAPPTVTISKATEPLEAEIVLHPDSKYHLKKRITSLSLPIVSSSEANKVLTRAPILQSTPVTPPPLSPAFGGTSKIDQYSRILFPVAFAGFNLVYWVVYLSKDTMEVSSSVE

CCOC(=O)c1ncn2c1[C@@H]1CCCN1C(=O)c1cc(OC)ccc1-2
Ratio Ki (Homo sapiens): 108

CCOC(=O)c1ncn2c1[C@@H]1CCCN1C(=O)c1cc(Br)ccc1-2
Ratio Ki (Homo sapiens): 49

CCOC(=O)c1ncn2c1[C@@H]1CCCN1C(=O)c1cc(C#C[Si](C)(C)C)ccc1-2
Ratio Ki (Homo sapiens): 50

O=C(OCC(F)(F)F)c1ncn2c1[C@@H]1CCCN1C(=O)c1cc(Br)ccc1-2
pKi [1]: < 6.48 | pKi [2]: < 6.48 | pKi [3]: < 6.48 | pKi [4]: 6.54 | pKi [5]: 6.61 | pKi [6]: 7.24

C=Cc1ccc2c(c1)C(=O)N1CCC[C@H]1c1c(C(=O)OCC(F)(F)F)ncn1-2
pKi [1]: 6.53 | pKi [2]: 7.03 | pKi [3]: 7.26 | pKi [4]: 6.76 | pKi [5]: 7.19 | pKi [6]: 8.16 | Ratio Ki (Homo sapiens): 13.6

CC(C)(C)OC(=O)c1ncn2c1[C@@H]1CCCN1C(=O)c1cc(Br)ccc1-2
pKi [1]: 7.14 | pKi [2]: 6.82 | pKi [3]: 6.91 | pKi [4]: 7.54 | pKi [5]: 7.31 | pKi [6]: 8.40 | Ratio Ki (Homo sapiens): 37.5

C[Si](C)(C)C#Cc1ccc2c(c1)C(=O)N1CCC[C@H]1c1c(C(=O)OCC(F)(F)F)ncn1-2
pKi [1]: < 6.48 | pKi [2]: < 6.48 | pKi [3]: < 6.48 | pKi [4]: < 6.48 | pKi [5]: < 6.48 | pKi [6]: 6.86

CC(C)(C)OC(=O)c1ncn2c1[C@@H]1CCCN1C(=O)c1cc(C#C[Si](C)(C)C)ccc1-2
pKi [1]: < 6.48 | pKi [2]: < 6.48 | pKi [3]: < 6.48 | pKi [4]: 6.76 | pKi [5]: < 6.48 | pKi [6]: 6.99

CC(C)(C)OC(=O)c1ncn2c1[C@@H]1CCCN1C(=O)c1cc(-c3cccs3)ccc1-2
pKi [1]: < 6.48 | pKi [2]: 7.80 | pKi [3]: 6.92 | pKi [4]: 6.92 | pKi [5]: 6.91 | pKi [6]: 7.92 | Ratio Ki (Homo sapiens): 1.3

CC(C)(C)OC(=O)c1ncn2c1[C@@H]1CCCN1C(=O)c1cc(-c3ccco3)ccc1-2
pKi [1]: 7.34 | pKi [2]: 8.74 | pKi [3]: 7.79 | pKi [4]: 7.94 | pKi [5]: 7.81 | pKi [6]: 8.77 | Ratio Ki (Homo sapiens): 1.1

O=C(OCC(F)(F)F)c1ncn2c1[C@@H]1CCCN1C(=O)c1cc(-c3ccco3)ccc1-2
pKi [1]: 6.60 | pKi [2]: 8.15 | pKi [3]: 7.26 | pKi [4]: 7.29 | pKi [5]: 7.28 | pKi [6]: 8.00 | Ratio Ki (Homo sapiens): 0.71

O=C(OCC(F)(F)F)c1ncn2c1[C@@H]1CCCN1C(=O)c1cc(-c3ccccc3)ccc1-2
pKi [1]: < 6.48 | pKi [2]: 6.85 | pKi [3]: < 6.48 | pKi [4]: < 6.48 | pKi [5]: < 6.48 | pKi [6]: < 6.48

C#Cc1ccc2c(c1)C(=O)N1CCC[C@H]1c1c(C(=O)OCC)ncn1-2
Ratio Ki (Homo sapiens): 45

C#Cc1ccc2c(c1)C(=O)N1CCC[C@H]1c1c(C(=O)OCC(F)(F)F)ncn1-2
pKi [1]: 6.49 | pKi [2]: 6.52 | pKi [3]: 6.76 | pKi [4]: 6.46 | pKi [5]: 6.77 | pKi [6]: 8.08 | Ratio Ki (Homo sapiens): 36

CC(C)(C)OC(=O)c1ncn2c1[C@@H]1CCCN1C(=O)c1cc(-c3ccccc3)ccc1-2
pKi [1]: < 6.48 | pKi [2]: 7.55 | pKi [3]: 6.89 | pKi [4]: 6.94 | pKi [5]: 7.23 | pKi [6]: 7.89 | Ratio Ki (Homo sapiens): 2.2

C#Cc1ccc2c(c1)C(=O)N1CCC[C@H]1c1c(C(=O)OC(C)(C)C)ncn1-2
pKi [1]: 6.51 | pKi [2]: < 6.48 | pKi [3]: < 6.48 | pKi [4]: 6.67 | pKi [5]: < 6.48 | pKi [6]: 7.40

C=Cc1ccc2c(c1)C(=O)N1CCC[C@H]1c1c(C(=O)OC(C)(C)C)ncn1-2
pKi [1]: 7.24 | pKi [2]: 7.30 | pKi [3]: 7.46 | pKi [4]: 7.59 | pKi [5]: 7.59 | pKi [6]: 8.62 | Ratio Ki (Homo sapiens): 20.8

O=C(OCC(F)(F)F)c1ncn2c1[C@@H]1CCCN1C(=O)c1ccccc1-2
pKi [1]: < 6.48 | pKi [2]: 7.47 | pKi [3]: 7.47 | pKi [4]: < 6.48 | pKi [5]: 7.89 | pKi [6]: 8.37 | Ratio Ki (Homo sapiens): 7.9
